Data published in US20240156898A1, “METHODS AND COMPOSITIONS FOR TREATING OCULAR DISORDERS AND DISEASES” (ONL Therapeutics, Inc., priority 2021, published 2024).
Residues, ends and D or L forms follow the SMILES beside them.

Key:
[1] = minipig, in vivo
Description: Seven animals received a repeat IVT dose at 2 mg/mL (0.1 mg/eye) on Day 90. […] Vitreous humor, retina, and choroid were collected on days 1, 7, 14, 28, and 88.

in vivo = settings: rabbit
Description: (§1) Body weights were measured and recorded prior to first dose, approximately weekly (for surviving animals through Week 12), and prior to euthanasia. […] Ophthalmic examinations were performed using the Hackett-McDonald Scoring System on Days 0, 7, 14, 28, 90, 97, 151, and 168. Pharmacokinetic analyses were performed on the vitreous humor concentration data.
(§2) Seven animals received a repeat IVT dose at 2 mg/mL (0.1 mg/eye) on Day 90.
(§3) Vitreous humor, retina, and choroid were collected on days 1, 7, 14, 28, 42, 61, 90, 97, 151, and 168. Eyes were enucleated, snap frozen using liquid nitrogen, and kept on dry ice or frozen at −80° C. until dissected for collection of aqueous humor, vitreous humor, retina, choroid, iris-ciliary body (ICB), and lens.
(§4) To homogenize ocular tissue samples, weighed amounts of control bovine vitreous humor, retina, and choroid were homogenized in USA scientific impact resistant microtubes containing 2.8 mm ceramic beads. Unknown rabbit vitreous humor, retina, and choroid samples were homogenized in USA scientific impact resistant microtubes containing 2.8 mm ceramic beads. Each vitreous humor sample was homogenized after the addition of 5000 microliters (uL) diluent (acetonitrile: water: 1 M hydrochloric acid (70:20:10, v/v/v). Retina tissues were homogenized after the addition of diluent (IPA:NH4OH (1000:1, v/v)) at a 1:5 ratio (parts tissue to parts diluent), and choroid samples were homogenized following addition of diluent at a 1:19 ratio. Tissues were homogenized at 5500 rpm for 3×30 second cycles with 20 second pauses between cycles until homogenized. Choroid went through two runs of homogenization, and retina and vitreous humor samples went through one run of homogenization.
(§5) Preparation of Standards, Unknowns, Blanks, and Blanks with Internal Standard for Vitreous Humor Analysis: • In a polypropylene tube, 10 uL of working calibration standard was added to 90 uL control blank vitreous humor. For blanks and blanks with internal standard, 100 uL of control blank bovine vitreous humor was added. Five hundred (500) uL of acetonitrile: water:1M hydrochloric acid (70:20:10, v/v/v) was added to each standard and 500 uL of acetonitrile: water:1M hydrochloric acid (70:20:10, v/v/v) was added to blanks. Standards and blanks were vortex mixed. One hundred (100) uL of each standard, blank or unknown vitreous humor sample homogenate was then aliquoted. One hundred (100) uL of IPA:NH4OH (1000:1, v/v) was added to each sample. The samples were vortex mixed for 1 minute, then centrifuged for 10 minutes at 4,000 rpm (4° C.). […] Fifty (50.0) uL of acetonitrile:water:1M hydrochloric acid (70:20:10, v/v/v) was added to blank without IS. Two hundred (200) uL of water was added. The samples were then mixed using a multichannel pipette, and supernatant transferred to an autosampler plate for analysis.
(§6) In a 96-well plate, 100 uL of control retina or choroid homogenate was added for calibration samples and unknowns. For blanks and blanks with internal standard, 100 uL of control bovine retina or choroid tissue homogenate was added. […] Twenty (20) uL acetonitrile:water:formic acid (25:75:0.1, v/v/v) was added to each blank without IS sample. Three-hundred (300) uL of IPA:NH4OH (1000:1, v/v) was added to each choroid or retina sample. The samples were then vortex mixed for 5 minutes. The samples were allowed to set for 15 minutes, vortex mixed for an additional minute, and centrifuged for 10 minutes at 4,000 rpm (4° C.).
(§7) Three-hundred-fifty (350) uL of each sample was then aliquoted to a 96-well plate. The samples were dried with nitrogen at 35° C.

[2] = Ocular tissue concentration of ONL1204 after intravitreal injection in rabbit eye (LC-MS/MS); settings: 0.1 mg/eye
Description: as §1, §2, §3, §4, §5, §6, §7

[3] = tested on: retinal pigment epithelial cell death; experiment: Sodium iodate (NaIO3) challenge study, duration of protection, fluorescein angiography lesion area; settings: rabbit
Description: NaIO3 solution: • Challenge Article: NaIO3 • Administration Route: IV • Frequency of Administration: Day 4 (day 7 endpoint), 14 (day 17 endpoint), 28 (day 31 endpoint), 59 (day 61 endpoint), or 78 (day 81 endpoint (rechallenged group)). • Solution: 20 mg/ml in 0.9% Injectable Saline • Dose: 17 or 18 mg/kg body weight
Test System: • Species: Rabbit • Expected Age: Animals were between 3 and 4 months of age • Expected Body Range: Approximately 2.0 Kg, Identification Animals were individually • housed and identified via cage card and ear ID and/or ear tattoo. • Experimental History: Purpose-bred and experimentally naïve at the onset of the study
Intravitreal Injection: • On Day 0, eyes were anesthetized with proparacaine and pupils dilated with tropicamide. Animals were anesthetized with isoflurane vapors to effect. A few drops of Betadine were placed on the eye and then rinsed with ophthalmic eye wash. A clean speculum was placed in the eye (rinsed in Betadine and sterile saline) and the temporal sclera was marked with calipers 3.5 mm from the corneal border. […] In order to reduce the potential for reflux of the test article the needle remained in the vitreous for at least 10 seconds following injection. No reflux was noted on the dosing record.
Model Induction: • A 20 mg/ml solution of NaIO3 was prepared in 0.9% injectable saline aliquoted into 4 batches and frozen at −20° C. For Groups 1-8, 1 batch of NaIO3 was thawed prior to injection. Groups 9-10 were added after the Study was underway therefore a new solution of 20 mg/ml NaIO3 was prepared in 0.9% injectable saline and frozen at −20° C. and thawed prior to injection. Test article and NaIO3 were injected into the left ear.
Animals were weighed and anesthetized with isoflurane vapors to effect. The left ear was shaved and swabbed with 10% alcohol prior to injection. An indwelling catheter was placed in the left marginal ear vein and flushed with 0.9% injectable saline. […]
Data Analysis: • The area of RPE depigmentation is reported as a unitless value provided by the ImageJ software. […] The resulting area was then measured.

For CC[C@H](C)[C@H](NC(=O)[C@H](Cc1ccc(O)cc1)NC(=O)[C@H](CC(N)=O)NC(=O)[C@@H](NC(=O)[C@H](C)NC(=O)CNC(=O)[C@H](CC(C)C)NC(=O)[C@H](Cc1ccc(O)cc1)NC(=O)[C@@H](NC(=O)[C@H](Cc1cnc[nH]1)NC(=O)[C@@H](N)Cc1cnc[nH]1)[C@@H](C)CC)C(C)C)C(=O)N[C@@H](Cc1ccc(O)cc1)C(N)=O [ONL1204] (H-HHIYLGAVNYIY-NH2), the “detection in the vitreous humor across all time points analyzed” value [1] was “detected in the vitreous humor across all time points analyzed”, the half-life (in vivo) was 280 days and the tissue level at time at 4032 h ([2]; retina) was 8.4 ng/g. For the same compound, the tissue level at time at 24 h ([2]; retina, Conc. of ONL1204 Retina, single IVT 0.1 mg/eye, Day 1, LLOQ 3.00 ng/g) was 12.7 ng/g, the tissue level at time at 168 h ([2]; retina, Conc. of ONL1204 Retina, single IVT 0.1 mg/eye, Day 7, LLOQ 3.00 ng/g) was 85.2 ng/g and the tissue level at time at 336 h ([2]; retina, Conc. of ONL1204 Retina, single IVT 0.1 mg/eye, Day 14, LLOQ 3.00 ng/g) was 5.95 ng/g. The half-life ([2]; vitreous humor, other: intravitreal injection) was 279 days, the “lesion size vs negative controls and vs 25 ug” value ([3]; 100 ug per eye IVT on Day 0, NaIO3 challenge Day 14) was “significantly smaller lesion size” and the “lesion size vs negative control animals and vs 25 ug” value ([3]; 100 ug per eye IVT on Day 0, NaIO3 challenge Day 28) was “significantly smaller lesion size”. The “mean lesion size across challenge time points” value ([3]; 25 or 100 ug per eye IVT on Day 0, NaIO3 challenge Days 4 to 59) was “substantive reduction”.
